Consider one substance from paper PMC10492782, “Exploiting the aggregation propensity of beta-lactamases to design inhibitors that induce enzyme misfolding” (Nature Communications, 2023).

For series [1], the system named is clinical isolates of E. coli containing TEM or SHV enzymes. The series is described as follows: MIC of ampicillin with or without 30 µg/mL TEM3.2 in clinical isolates. The format is cell-based, Escherichia coli. As to conditions: 30 μg/mL TEM3.2; 14 out of 16 isolates. As to the method: Determination of MIC values was performed using the broth microdilution method according to the EUCAST guideline, which was performed in 96-well polystyrene flat-bottom microtiter plates (BD Biosciences). Briefly, a single colony was inoculated into 5 mL Difco™ Mueller–Hinton Broth (BD Biosciences Ref 275730) and grown to the end-exponential growth phase in a shaking incubator at 37 °C. Cultures were subsequently diluted to a MacFarland (0.5 optical density) to reach 10^6 CFU/mL in fresh MHB medium. 50 µl of different concentrations of peptides ranging from 128 to 2 µg/mL were serially diluted to the sterile 96-well plate in MHB. 50 µL of the diluted bacteria in MHB were next pipetted into 96-well plates to reach the final volume of 100 µL. The bacteria grown with the maximum concentration of carrier and medium were considered positive and negative controls, respectively. The plates were statically incubated overnight at 37 °C to allow bacterial growth. OD was measured at 590 nm using a multipurpose ultraviolet–visible plate reader, and the absorbance of the bacterial growth was measured using an absorbance reader.

The nature of series [2]: pFTAA fluorescence of peptide aggregates. The class given is physicochemical. As to conditions: 50 μM peptide, PolyP condition. As to the method: (§1) Fig. 4 Aggregation kinetics of TEM and SHV proteins and peptides. A Measurements of the hydrodynamic radius by Dynamic Light Scattering of 50 μM TEM3.2 in buffer alone, or in the presence of LPS or polyphosphate (PolyP). […] C Transmission Electron Micrograph of 50 μM TEM 3.2 incubated for 24 h in the same buffer as A with polyP, negatively stained with 2% (w/v) uranyl acetate. A single representative image is shown. […] Three replicates are shown for each condition. E Aggregation kinetics using pFTAA fluorescence emission of recombinantly purified TEM-1, in the presence of vehicle, or TEM 3.2 peptin, as well as peptin-only control. F Similar as in E, but using an off-target Pept-In, based on an APR sequence of beta-galactosidase. G Similar to E, but now using a previously published off-target Pept-In, based on an APR of HcaB. The plots are the results of a single experiment, all replicates are shown. Source data are provided as a Source Data file.

Series [3] in a line: Dynamic Light Scattering of peptide (hydrodynamic radius). The class given is physicochemical. How it is done: as §1
A DynaPro DLS plate reader instrument (Wyatt, Santa Barbara, CA, USA) equipped with an 830 nm laser source was used to determine the hydrodynamic radius (RH) of the peptide particles. […] The autocorrelation of scattered light intensity at a 32° angle was recorded for 5 s and averaged over 20 recordings to obtain a single data point. […]

Series [4] deals with T1, TEM beta-lactamase in E. coli strain UZ_TEM104 (Escherichia coli, UniProt P62593).
T1 construct: endogenous in cells
The series is described as follows: Western blot of inclusion body fraction. The format is cell-based. The following applies: 12 μM peptide in PBS, 120 min. From the text: (§2) Fig. 5 Induction of aggregation in cells. […] A single representative image is shown. […] A single representative image is shown. C SIM and brightfield images as in A, but for E. coli ATCC strain. […] A single representative image is shown. […] A single representative blot is shown. […] The corrected P-values were 0.6091, 0.0029, 0.0027, <0.0001, and 0.9992, from left to right. […] Statistics exactly as in E, but from 3 independent experiments. The corrected P-values were 0.8753, 0.9796, 0.0001, 0.0003, and 0.0003, from left to right. Source data are provided as a Source Data file.
(§3) Overnight cultures of bacteria were centrifuged for 30 min at 4000 × g and cells were washed with physiological water (NaCl 0.9%). Bacterial cells were treated by peptide at the appropriate concentration for at least 2 h at 37 C. The bacterial pellets were washed with 10 mL buffer A (50 mM HEPES, pH 7.5, 300 mM NaCl, 5 mM β-mercaptoethanol, 1.0 mM EDTA) and centrifuged at 4 °C for 30 min at 4000 × g. […]

The test system of series [5] is SHV beta-lactamase in E. coli SHV-11. The experiment in a line: Western blot of inclusion body fraction. The class given is cell-based, Escherichia coli. As to conditions: 12 μM peptide in PBS, 120 min.
Source text: as §2, §3

A short description of series [6]: Hematologic analysis after repeated dosing. The following applies: daily IV injections, 5 mg/kg.
In series [7] the test system is E. coli K12 MG1655 overexpressing GFP. The series is described as follows: Structured illumination microscopy of strains expressing GFP or FP fusions. The format is cell-based, Escherichia coli. As to conditions: strains stably expressing GFP or proteins fused to FPs treated with TEM3.2.
Source text: as §2
Bacteria were fixed by adding 2.5% paraformaldehyde and 0.04 % glutaraldehyde (final concentrations) to the culture media, followed by incubation at room temperature for 15 min and 30 min on ice. Bacteria were then washed in PBS and resuspended in GTE buffer (50 mM glucose, 25 mM Tris, and 10 mM EDTA, pH 8.0). Directly preceding microscopic analysis, cells were transferred to a glass slide and covered with a coverslip. Imaging was performed using a Zeiss Elyra S.1 system in the VIB BioImaging Core at KU Leuven.

T1 sequence (P62593 24-286 limits assumed): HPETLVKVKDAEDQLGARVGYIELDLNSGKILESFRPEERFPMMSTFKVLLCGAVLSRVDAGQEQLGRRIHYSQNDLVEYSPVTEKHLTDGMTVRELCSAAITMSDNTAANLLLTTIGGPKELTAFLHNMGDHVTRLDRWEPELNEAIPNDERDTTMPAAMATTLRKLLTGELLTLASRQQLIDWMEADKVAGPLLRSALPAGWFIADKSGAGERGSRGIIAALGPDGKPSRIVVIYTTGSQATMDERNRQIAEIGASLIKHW

Regarding Ac-RLTAFLHNRRPRLTAFLRQRR-NH2 [TEM3.2], the “clinical isolates containing TEM or SHV sensitized to Ampicillin” value in series [1] stood at 87%. Besides, in series [2], the “pFTAA staining of fibrils (in words)” value is on record as “stain positive for pentameric formyl thiophene acetic acid (pFTAA)”. The “solubility by Dynamic Light Scattering (in words)” value in series [3] (50 μM peptide in buffer alone) is recorded as “soluble in vitro”. Besides, the “aggregation by Dynamic Light Scattering (in words)” value in series [3] (50 μM peptide in the presence of LPS or polyphosphate (PolyP)) is “aggregates readily when triggered by appropriate interactions”. In addition, in series [4], the “TEM protein in inclusion body fraction, western blot (in words)” value is reported as “clear enrichment of the TEM protein in IBs”. The “SHV enzyme in inclusion body fraction, western blot (in words)” value in series [5] was “accumulates in IBs”. Further, in series [6], the “hematologic analysis (in words)” value was “no major discrepancies to vehicle-treated controls”. Further, the “induced aggregation of unrelated fluorescent proteins (in words)” value in series [7] is “did not observe a similar induced aggregation of the fluorescent proteins”.
